Test: xn = mol fraction of the nth substance listed
Conditions: 101 kPa, Liquid; for mass density: Vibrating tube method; for speed of sound: sound velocity cell

CC(=O)[O-].[NH3+]CCO [2-hydroxyethylammonium acetate] + CO
Conditions	mass density [kg/m3]	speed of sound [m/s]
288.15 K, x1 = 0.0492	850.323	1214.8
288.15 K, x1 = 0.0951	891.619	1276.8
288.15 K, x1 = 0.1987	958.564	1390.3
288.15 K, x1 = 0.29	1002.52	1476.1
288.15 K, x1 = 0.3786	1034.79	1545.4
288.15 K, x1 = 0.4825	1066.13	1618.4
288.15 K, x1 = 0.6007	1093.45	1688
288.15 K, x1 = 0.6711	1107.68	1725.1
288.15 K, x1 = 0.7797	1126.68	1740.8
288.15 K, x1 = 0.8297	1134.06	1797.8
288.15 K, x1 = 0.9328	1147.97	1795.3
288.15 K, x1 = 1	1154.7	1817.2
290.65 K, x1 = 0.0492	848.152	1207.2
290.65 K, x1 = 0.0951	889.567	1269.4
290.65 K, x1 = 0.1987	956.698	1383.4
290.65 K, x1 = 0.29	1000.78	1469.5
290.65 K, x1 = 0.3786	1033.16	1538.9
290.65 K, x1 = 0.4825	1064.58	1612.3
290.65 K, x1 = 0.6007	1091.92	1681.6
290.65 K, x1 = 0.6711	1106.19	1718.6
290.65 K, x1 = 0.7797	1125.18	1734.6
290.65 K, x1 = 0.8297	1132.65	1790.7
290.65 K, x1 = 0.9328	1146.53	1787.9
290.65 K, x1 = 1	1153.28	1810
293.15 K, x1 = 0.0492	845.97	1199.8
293.15 K, x1 = 0.0951	887.505	1262.1
293.15 K, x1 = 0.1987	954.823	1376.3
293.15 K, x1 = 0.29	999.035	1462.8
293.15 K, x1 = 0.3786	1031.5	1532.4
293.15 K, x1 = 0.4825	1063.02	1606.2
293.15 K, x1 = 0.6007	1090.45	1675.2
293.15 K, x1 = 0.6711	1104.7	1712.1
293.15 K, x1 = 0.7797	1123.69	1728.6
293.15 K, x1 = 0.8297	1131.24	1784
293.15 K, x1 = 0.9328	1145.1	1781.1
293.15 K, x1 = 1	1151.87	1803.2
295.65 K, x1 = 0.0492	843.786	1192.1
295.65 K, x1 = 0.0951	885.441	1254.6
295.65 K, x1 = 0.1987	952.95	1369.2
295.65 K, x1 = 0.29	997.283	1456
295.65 K, x1 = 0.3786	1029.84	1525.9
295.65 K, x1 = 0.4825	1061.45	1600
295.65 K, x1 = 0.6007	1088.98	1669.1
295.65 K, x1 = 0.6711	1103.21	1705.8
295.65 K, x1 = 0.7797	1122.2	1722.7
295.65 K, x1 = 0.8297	1129.83	1777.5
295.65 K, x1 = 0.9328	1143.67	1774.5
295.65 K, x1 = 1	1150.45	1796.8
298.15 K, x1 = 0.0492	841.599	1184.3
298.15 K, x1 = 0.0951	883.376	1247
298.15 K, x1 = 0.1987	951.074	1362.2
298.15 K, x1 = 0.29	995.529	1449.3
298.15 K, x1 = 0.3786	1028.18	1519.5
298.15 K, x1 = 0.4825	1059.89	1593.9
298.15 K, x1 = 0.6007	1087.51	1663
298.15 K, x1 = 0.6711	1101.72	1699.7
298.15 K, x1 = 0.7797	1120.71	1717
298.15 K, x1 = 0.8297	1128.41	1771.3
298.15 K, x1 = 0.9328	1142.24	1768.2
298.15 K, x1 = 1	1149.04	1790.7
300.65 K, x1 = 0.0492	839.407	1176.5
300.65 K, x1 = 0.0951	881.305	1239.5
300.65 K, x1 = 0.1987	949.197	1355.1
300.65 K, x1 = 0.29	993.775	1442.7
300.65 K, x1 = 0.3786	1026.52	1513.1
300.65 K, x1 = 0.4825	1058.32	1587.8
300.65 K, x1 = 0.6007	1086.03	1657
300.65 K, x1 = 0.6711	1100.3	1693.7
300.65 K, x1 = 0.7797	1119.26	1711.3
300.65 K, x1 = 0.8297	1127	1765.3
300.65 K, x1 = 0.9328	1140.81	1762.1
300.65 K, x1 = 1	1147.63	1784.8
303.15 K, x1 = 0.0492	837.209	1168.8
303.15 K, x1 = 0.0951	879.233	1232
303.15 K, x1 = 0.1987	947.318	1348.1
303.15 K, x1 = 0.29	992.018	1436
303.15 K, x1 = 0.3786	1024.86	1506.7
303.15 K, x1 = 0.4825	1056.74	1581.7
303.15 K, x1 = 0.6007	1084.54	1651
303.15 K, x1 = 0.6711	1098.87	1687.7
303.15 K, x1 = 0.7797	1117.84	1705.7
303.15 K, x1 = 0.8297	1125.59	1759.4
303.15 K, x1 = 0.9328	1139.38	1756.3
303.15 K, x1 = 1	1146.22	1779
305.65 K, x1 = 0.0492	835.006	1161.1
305.65 K, x1 = 0.0951	877.153	1224.5
305.65 K, x1 = 0.1987	945.436	1341
305.65 K, x1 = 0.29	990.259	1429.3
305.65 K, x1 = 0.3786	1023.19	1500.3
305.65 K, x1 = 0.4825	1055.17	1575.7
305.65 K, x1 = 0.6007	1083.06	1645.1
305.65 K, x1 = 0.6711	1097.42	1681.8
305.65 K, x1 = 0.7797	1116.4	1700.1
305.65 K, x1 = 0.8297	1124.17	1753.7
305.65 K, x1 = 0.9328	1137.95	1750.5
305.65 K, x1 = 1	1144.8	1773.4
308.15 K, x1 = 0.0492	832.793	1153.3
308.15 K, x1 = 0.0951	875.068	1217
308.15 K, x1 = 0.1987	943.548	1334
308.15 K, x1 = 0.29	988.497	1422.7
308.15 K, x1 = 0.3786	1021.52	1494
308.15 K, x1 = 0.4825	1053.6	1569.6
308.15 K, x1 = 0.6007	1081.57	1639.2
308.15 K, x1 = 0.6711	1095.97	1675.9
308.15 K, x1 = 0.7797	1114.95	1694.5
308.15 K, x1 = 0.8297	1122.74	1748
308.15 K, x1 = 0.9328	1136.52	1744.9
308.15 K, x1 = 1	1143.39	1767.9
310.65 K, x1 = 0.0492	830.575	1145.6
310.65 K, x1 = 0.0951	872.975	1209.6
310.65 K, x1 = 0.1987	941.654	1327
310.65 K, x1 = 0.29	986.73	1416
310.65 K, x1 = 0.3786	1019.84	1487.6
310.65 K, x1 = 0.4825	1052.01	1563.5
310.65 K, x1 = 0.6007	1080.07	1633.3
310.65 K, x1 = 0.6711	1094.53	1670.1
310.65 K, x1 = 0.7797	1113.51	1689
310.65 K, x1 = 0.8297	1121.32	1742.3
310.65 K, x1 = 0.9328	1135.08	1739.3
310.65 K, x1 = 1	1141.96	1762.5
313.15 K, x1 = 0.0492	828.348	1137.8
313.15 K, x1 = 0.0951	870.876	1202.1
313.15 K, x1 = 0.1987	939.757	1320
313.15 K, x1 = 0.29	984.961	1409.3
313.15 K, x1 = 0.3786	1018.17	1481.3
313.15 K, x1 = 0.4825	1050.42	1557.5
313.15 K, x1 = 0.6007	1078.57	1627.4
313.15 K, x1 = 0.6711	1093.07	1664.3
313.15 K, x1 = 0.7797	1112.05	1683.4
313.15 K, x1 = 0.8297	1119.91	1736.7
313.15 K, x1 = 0.9328	1133.64	1733.8
313.15 K, x1 = 1	1140.55	1757.2
315.65 K, x1 = 0.0492	826.113	1130.1
315.65 K, x1 = 0.0951	868.768	1194.7
315.65 K, x1 = 0.1987	937.855	1313.1
315.65 K, x1 = 0.29	983.188	1402.7
315.65 K, x1 = 0.3786	1016.49	1475
315.65 K, x1 = 0.4825	1048.81	1551.4
315.65 K, x1 = 0.6007	1077.07	1621.4
315.65 K, x1 = 0.6711	1091.61	1658.5
315.65 K, x1 = 0.7797	1110.6	1678
315.65 K, x1 = 0.8297	1118.54	1731.2
315.65 K, x1 = 0.9328	1132.26	1728.4
315.65 K, x1 = 1	1139.18	1751.9
318.15 K, x1 = 0.0492	823.867	1122.4
318.15 K, x1 = 0.0951	866.652	1187.2
318.15 K, x1 = 0.1987	935.943	1306
318.15 K, x1 = 0.29	981.405	1396.1
318.15 K, x1 = 0.3786	1014.8	1468.6
318.15 K, x1 = 0.4825	1047.21	1545.3
318.15 K, x1 = 0.6007	1075.56	1615.5
318.15 K, x1 = 0.6711	1090.14	1652.7
318.15 K, x1 = 0.7797	1109.14	1672.5
318.15 K, x1 = 0.8297	1117.15	1725.7
318.15 K, x1 = 0.9328	1130.88	1723
318.15 K, x1 = 1	1137.82	1746.5
320.65 K, x1 = 0.0492	821.611	1114.8
320.65 K, x1 = 0.0951	864.531	1179.8
320.65 K, x1 = 0.1987	934.029	1299.1
320.65 K, x1 = 0.29	979.623	1389.4
320.65 K, x1 = 0.3786	1013.12	1462.3
320.65 K, x1 = 0.4825	1045.59	1539.3
320.65 K, x1 = 0.6007	1074.05	1609.6
320.65 K, x1 = 0.6711	1088.66	1646.9
320.65 K, x1 = 0.7797	1107.66	1667
320.65 K, x1 = 0.8297	1115.77	1720.2
320.65 K, x1 = 0.9328	1129.49	1717.6
320.65 K, x1 = 1	1136.45	1741.3
323.15 K, x1 = 0.0492	819.344	1107
323.15 K, x1 = 0.0951	862.394	1172.3
323.15 K, x1 = 0.1987	932.105	1292.1
323.15 K, x1 = 0.29	977.831	1382.7
323.15 K, x1 = 0.3786	1011.42	1455.9
323.15 K, x1 = 0.4825	1043.94	1533.2
323.15 K, x1 = 0.6007	1072.54	1603.7
323.15 K, x1 = 0.6711	1087.18	1641.1
323.15 K, x1 = 0.7797	1106.19	1661.7
323.15 K, x1 = 0.8297	1114.37	1714.7
323.15 K, x1 = 0.9328	1128.1	1712.3
323.15 K, x1 = 1	1135.08	1736

Source: the NIST ThermoML archive (doi:10.1016/j.jct.2011.01.014)
